{"source": "patent US20010038832A1", "about": "“Nitric oxide and analogues thereof effectuate sensitization of neoplasm and immunologically undesired tissues to cytotoxicity” (priority 2000, published 2001)", "assay_type_in_all_cases": "cell-based", "key": {"AD10 cells [1]": {"tested_on": "AD10 cells", "assay": "Apoptosis by acridine orange/ethidium bromide staining, AD10 cells", "procedure": "Now referring to FIGS. 5a through f, sensitization of AD10 to CH11 (Fas-ligand agonist)-mediated cytotoxicity was due to apoptosis. The morphological pattern was examined by staining the ovarian carcinoma cells with acridine orange/ethidium bromide (AO/EB).\nThis example describes one preferred embodiment for determining apoptosis through acridine orange/ethidium bromide staining. Characteristic apoptotic morphological changes were assessed by fluorescent microscopy using the acridine-orange and ethidium bromide staining (AO/EB) method. Briefly, adherent cells, under different experimental conditions, were cultured in 24 wells plates, and washed with PBS once prior to staining. Monolayers of adherent cells were covered with 100 μl of AO/EB solution (4 μg/mL of each). Immediately after adding the AO/EB solution, each sample was examined under an inverted/fluorescent microscope."}, "A2780 cells": {"tested_on": "A2780 cells", "assay": "Fas-mediated cytotoxicity (CH11, LDH release), A2780 cells", "procedure": "(§1) In a preferred embodiment, A2780 and AD10 cells (1×10^4 cells/well) were cultured in 96-well plates supplemented with 10%FCS and pretreated with increasing concentrations of IFN-γ (0, 10, 100 and 1000 U/mL) 18 h prior to performing the cytotoxicity assay with increasing concentrations of the anti-Fas agonist antibody CH11 (0, 0.01, and 0.1 μg/mL).\n(§2) Now also referring to FIGS. 3A and B, therein the role of iNOS in the mechanism of sensitization to Fas-mediated cytotoxicity of ovarian carcinoma cells is illustrated. Ovarian carcinoma cells, A2780 and AD10, were respectively incubated in the presence or in the absence of the competitive NOS inhibitor L-NMA (1 mM) 6 h prior to IFN-γ treatment. […] Furthermore, it is herein illustrated that the parental cell line A2780, which is not able to express iNOS upon IFN-γ stimulation, was not sensitized at the same level when compared with the adriamycin resistant cell line AD10, which is induced by IFN-γ alone to express iNOS.\n(§3) The role of the endogenously generated NO in the IFN-γ-mediated sensitization to Fas-induced apoptosis was corroborated by the use of an exogenous source of NO, which mimics the production of NO by iNOS. […]\n(§4) This example describes a preferred method of determining cytotoxicity. Sensitization to Fas-mediated apoptosis was assessed using the agonist anti-Fas monoclonal antibody CH11(IgM) [0.01, 0.1 and 1 μg/mL] […] After the initial incubation for each different experimental condition, released LDH into the culture supernatants was measured with a 30-minute coupled enzymatic assay which results in the conversion of a tetrazolium salt (INT) into a red formazan product that is read at 490 nm in an automated plate reader (Emax, Molecular Devices, Sunnyvale, Calif.). Percentage cytotoxicity was calculated using the spontaneous release-corrected OD as follows: % cytotoxicity=(OD of experimental well/OD of maximum release control well)×100."}, "[2]": {"tested_on": "Fas receptor protein in AD10 cells", "assay": "Fas receptor protein level by Western blot, AD10 cells", "conditions": "FIG. 6C", "procedure": "Now referring to FIG. 6C, the upregulation of Fas receptor was corroborated by Western blot. IFN-γ induced AD10 cells (1×10^7/plate) were cultured in a 100-mm plate supplemented with 10% FCS.\nThis example describes one preferred method of determining protein expression. Cell extracts for iNOS and Fas receptor analysis were prepared by lysing 5×10^6 cells in 1 mL phosphate buffer solution [10 mM EDTA, 1% triton X-100, 1 mM Phenylmethylsulfonyl fluoride (PMSF) and 0.01% leupeptin]. Cell lysates were boiled (3 min) with 1 volume gel loading buffer [50 mM Tris/10% sodium dodecyl sulfate (SDS)/10% glycerol/10% 2-mecaptoethanol/2 mg/mL bromophenol blue] and centrifuged at 1×10^4 g for 10 min. Protein concentrations of the supernatants were determined according to Bradford, and total protein equivalents for each sample were separated on 12% SDS-polyacrylamide minigels (Bio-Rad, Richmond, Calif.) and transferred to nitrocellulose membranes (Amersham Corp., Arlington Heights, Ill.). Nonspecific immunoglobulin G (IgG) binding sites were blocked with 5% dried milk protein, and samples were then incubated with the antibody to iNOS [1:1000] (Transduction Laboratories, Lexington, Ky.) or CD95 [1:500] (PharMingen, San Diego, Calif.)."}, "[3]": {"tested_on": "Fas receptor mRNA in AD10 cells", "assay": "Fas receptor mRNA expression by RT-PCR, AD10 cells"}, "AD10 cells [4]": {"tested_on": "AD10 cells", "assay": "Fas-mediated cytotoxicity (CH11, LDH release), AD10 cells", "procedure": "as §1, §2, §3, §4"}, "[5]": {"tested_on": "Fas surface molecule on AD10 cells", "assay": "Fas surface molecule expression by flow cytometry, AD10 cells", "procedure": "(§5) This example describes one preferred method of separating and sorting cells through fluorescence-activated cell sorting (FACS). Surface Fas antigen expression on tumor cells was determined by flow cytometry. Briefly, harvested cells were washed with cold buffer consisting of PBS without Ca^++ or Mg^++ with 2% heat-inactivated FCS and 0.1% sodium azide. 2×10^5 cells per sample were pretreated with human AB serum (Gemini Bioproducts, Calabasas, Calif.) for 1 h, washed twice and resuspended in 50 μl of PBS. The cells were incubated with 10 μg/mL of anti-Fas monoclonal antibody FITC-conjugated (PharMingen, San Diego, Calif.) or isotype control antibody for 1 h. The cells were then washed twice and fixed in 2% paraformaldehyde solution (Sigma Chemical Co., St. Louis, Mo.) and flow cytometry was conducted all the FACScan facility of the UCLA Department of Microbiology and Immunology."}, "[6]": {"tested_on": "NO production by iNOS in AD10 cells", "assay": "NO2-/NO3- release into culture medium (Griess reaction), AD10 cells", "conditions": "FIG. 1B", "procedure": "(§6) The activity of iNOS and generated NO were monitored by the release of NO2^−/NO3^− into the cell culture medium as determined by the Griess reaction.\n(§7) This example describes one preferred method of determining nitrate and nitrite concentrations. Nitric oxide generation was monitored indirectly by levels of nitrite/nitrate (NO2^−/NO3^−) released into the culture medium as determined by the diazotization reaction of Griess with NaNO2 as standard Briefly, 50 μl aliquots of cell culture supernatants from each sample were mixed with one volume of Griess reagent [1% sulfanilamide; 0.1% naphthylethylene diamine dihydrochloride; 2.5% H3PO4] and incubated at room temperature for 10 min. The absorbance at 550 nm was measured in an automated plate reader (Emax, Molecular Devices, Sunnyvale, Calif.). Nitrite concentrations were calculated by comparison with OD550 values of standard solutions of sodium nitrite prepared in culture medium."}, "[7]": {"tested_on": "Fas surface molecule on A2780 cells", "assay": "Fas surface molecule expression by flow cytometry, A2780 cells", "conditions": "A2780, FIG. 6D legend", "procedure": "as §5"}, "[8]": {"tested_on": "NO generation in A2780 cells", "assay": "NO generation upon IFN-γ stimulation, A2780 cells", "procedure": "as §6, §7"}, "[9]": {"tested_on": "iNOS mRNA in AD10 ovarian carcinoma cells", "assay": "iNOS mRNA expression by semiquantitative RT-PCR in AD10 cells", "conditions": "18 hours, FIG. 1A"}, "[10]": {"tested_on": "iNOS expression in A2780 ovarian carcinoma cell line", "assay": "iNOS expression in A2780 cells", "conditions": "parental A2780 cell line, data not shown"}}, "data": [{"molecule": "CC(=O)N[C@H](C(=O)O)C(C)(C)SN=O", "note": "(racemic) [SNAP, S-Nitroso-N-acetylpenicillamine]", "values": [{"measurement": "number of apoptotic cells, NO donor alone", "setting": "AD10 cells [1]; AD10, NO donor alone, no CH11", "value": "did not increase the number of apoptotic cells"}, {"measurement": "frequency of cells undergoing apoptosis, NO donor prior to CH11", "setting": "AD10 cells [1]; AD10, SNAP prior to exposure to CH11", "value": "increased the frequency of cells undergoing characteristic apoptosis"}, {"measurement": "sensitization to Fas-mediated cytotoxicity by NO donor", "setting": "A2780 cells; A2780, NO donor 10 and 100 μM for 24 h before CH11, LDH release, FIG. 4A", "value": "sensitized"}, {"measurement": "Fas protein level after addition of SNAP to IFN-γ plus NOS inhibitor", "setting": "[2]", "value": "restored"}, {"measurement": "Fas receptor mRNA expression with NO donor", "setting": "[3]; AD10, SNAP 0, 1, 10 and 100 μM, 18 h, FIG. 6A", "value": "upregulated Fas receptor mRNA expression"}, {"measurement": "sensitization to Fas-mediated cytotoxicity by NO donor", "setting": "AD10 cells [4]; AD10, NO donor 10 and 100 μM for 24 h before CH11, LDH release, FIG. 4B", "value": "sensitized"}, {"measurement": "Fas surface expression after NO donor added to IFN-γ plus NOS inhibitor", "setting": "[5]; AD10, FIG. 6D", "value": "restored"}]}, {"molecule": "CNC(=N)NCCC[C@H](N)C(=O)O", "note": "[L-NMA, N^G-Monomethyl-L-arginine]", "values": [{"measurement": "frequency of cells undergoing apoptosis with NOS inhibitor", "setting": "AD10 cells [1]; AD10, L-NMA 1 mM 6 h prior to IFN-γ pretreatment, then CH11", "value": "significantly reduced"}, {"measurement": "effect of NOS inhibition on IFN-γ-mediated sensitization to Fas-mediated apoptosis", "setting": "A2780 cells; A2780, L-NMA 1 mM 6 h prior to IFN-γ, FIG. 3A", "value": "did not respond to NOS blocking"}, {"measurement": "effect of NOS inhibitor on IFN-γ-induced NO2-/NO3- generation", "setting": "[6]; L-NMA 1.0 mM prior to IFN-γ induction", "value": "blocking the generation of NO2^−/NO3^−"}, {"measurement": "IFN-γ mediated upregulation of Fas protein level in presence of NOS inhibitor", "setting": "[2]", "value": "markedly reduced"}, {"measurement": "Fas mRNA expression with NOS blocking", "setting": "[3]; AD10, IFN-γ 10 and 100 U/mL, L-NMA 1.0 mM, 24 hours, FIG. 6B", "value": "markedly reduced"}, {"measurement": "effect of NOS inhibition on IFN-γ-mediated sensitization to Fas-mediated apoptosis", "setting": "AD10 cells [4]; AD10, L-NMA 1 mM 6 h prior to IFN-γ, FIG. 3B", "value": "significantly decreased"}, {"measurement": "IFN-γ-increased Fas surface expression with NOS inhibitor", "setting": "[5]; AD10, IFN-γ 10 U/mL, FIG. 6D", "value": "partially blocked"}]}, {"molecule": "IFN-γ: human recombinant IFN-γ, gamma interferon cytokine", "values": [{"measurement": "frequency of cells undergoing apoptosis vs untreated control group", "setting": "AD10 cells [1]; AD10, IFN-γ 18 h then CH11 0.1 μg/mL 6 h", "value": "greater frequency of cells undergoing apoptosis"}, {"measurement": "production of NO (nitrites and nitrates in culture medium) upon IFN-γ", "setting": "[6]; IFN-γ 0 to 1000 U/ml, 18 hours", "value": "can be induced by IFN-γ to produce NO by iNOS"}, {"measurement": "Fas protein level with IFN-γ", "setting": "[2]", "value": "upregulation of Fas protein level"}, {"measurement": "expression of Fas surface molecule with IFN-γ", "setting": "[7]", "value": "increased expression"}, {"measurement": "expression of Fas surface molecule vs untreated control cells", "setting": "[5]; AD10, IFN-γ 10 U/mL, 18 hours, FIG. 6D", "value": "increased expression"}, {"measurement": "NO generation upon IFN-γ stimulation", "setting": "[8]", "value": "cannot generate NO"}, {"measurement": "IFN-γ concentration at which significant levels of iNOS mRNA were observed", "setting": "[9]; 1% FCS", "value": 1, "unit": "U/mL"}, {"measurement": "IFN-γ concentration at which plateau of iNOS mRNA expression was reached", "setting": "[9]", "value": 100, "unit": "U/mL"}, {"measurement": "iNOS expression upon IFN-γ treatment", "setting": "[10]", "value": "not possible to detect any iNOS expression"}]}, {"molecule": "IFN-γ: human recombinant IFN-γ, gamma interferon cytokine (protein, UniProt P01579 24-161, looked up) Interferon gamma: QDPYVKEAENLKKYFNAGHSDVADNGTLFLGILKNWKEESDRKIMQSQIVSFYFKLFKNFKDDQSIQKSVETIKEDMNVKFFNSNKKKRDDFEKLTNYSVTDLNVQRKAIHELIQVMAELSPAAKTGKRKRSQMLFRG", "values": [{"measurement": "capacity of being sensitized by IFN-γ to Fas-mediated cytotoxicity", "setting": "A2780 cells; A2780 compared with AD10, IFN-γ 18 h then CH11, FIG. 2A", "value": "lower capacity of being sensitized"}, {"measurement": "sensitization to Fas-mediated cytotoxicity compared with untreated control group", "setting": "AD10 cells [4]; AD10, IFN-γ pretreatment 18 h, then CH11, FIG. 2B", "value": 10, "unit": "fold"}]}]}
